The values that follow come from patent US20240053330A1, “MODULAR KINETICALLY-CONTROLLED FUNCTIONAL RNA CONSTRUCTS AND RELATED COMPOSITIONS, SYSTEMS, AND METHODS” (UNIVERSITY OF WASHINGTON, priority 2021, published 2024).

The assay relates to J306 target with alternative PAM sequences. In words: CRISPRa at alternative PAM sites of the J3-J23117-mRFP1 reporter. It counts as cell-based, E. coli. The text has this: FIGS. 31A and 31B illustrate that dxCas9(3.7) expands the range of targetable scRNA target sites by recognizing alternative PAMs. […] Reporter plasmids were constructed by replacing the AGG PAM site for the J306 target in the J3-J23117-mRFP1 reporter with alternative PAM sequences that have been previously reported to be recognized by dxCas9(3.7) in human cells (Hu, J. H. et al. Evolved Cas9 variants with broad PAM compatibility and high DNA specificity. Nature 556, 57-63 (2018), incorporated herein by reference in its entirety). The (−) sign indicates a control expressing the original reporter with the AGG PAM and the CRISPRa components with Sp-dCas9, the activation domain and no scRNA.
Considering there is a limited number of genes with an appropriate NGG PAM site at precisely the optimal position upstream of the promoter, it was attempted to expand the scope of targetable PAM sites for CRISPRa. A recently characterized dCas9 variant, dxCas9(3.7), that has improved activity at a variety of non-NGG PAM sites including NGN, GAA, GAT, and CAA6 was used. […] PAM sites than NGG PAM sites (not shown), Accounting for the fact that dCas9 has some activity at non-NGG sites6 (FIG. 31), there are still on average ˜2.2-fold more dxCas9(3.7)-compatible PAM sites than dCas9-compatible PAM sites (not shown). […]

With Sp-dCas9: S. pyogenes dCas9, under “non-NGG PAM sites AGA, CGA, GGA, GGC, GGT, TGA”, the “CRISPRa activity (in words)” value is recorded as “moderate CRISPRa activity”. The “activation of AGT PAM site shifted into the peak activation range (in words)” value (reporter with five bases inserted) is given as “ineffective”.
